# Read-outs that look alike come from different tables or passages of the source.
# Tests used:
# [1] = Comparison of intranasal with published rectal diazepam concentration-time course
# [2] = rectal, published data (Cloyd et al, Epilepsia 1998); cited from earlier work
# [3] = DZP permeation through blank filter; settings: S from 1 to 6, 30/70 GF/AB vehicle, blank filters
# [4] = Nasal administration of diazepam and midazolam preparations in two healthy volunteers; settings: for Nasal Discomfort / Nasal Discomfort (maximum): subject self-rating, IN 5 mg dose, n = 2
# Procedure: Approximately 0.5 ml (2.5 mg) was dripped into each nostril over a period of 30 seconds.
# [5] = Diffusion studies through silicone membranes (Franz diffusion cell); settings: for Steady State Flux / Time Lag / Transference: 75 μm silicone membrane
# [6] = cited from earlier work
# [7] = in vivo; cited from earlier work
# [8] = Lipid-solubility (octanol/water ratio) of benzodiazepines; settings: from Table 1
# [9] = tested on: patients with SE; settings: intravenous, given within 30 minutes of the onset of SE; cited from earlier work
# [10] = cited from earlier work; remark: listed apart in the source
# [11] = clinical; settings: human, plasma, inhaled or intranasal, 5 mg
# [12] = tested on: MDCKII-WT cell monolayer; settings: 0-50% GF with assay buffer, over 30 min
# Procedure: (§1) Maden Darby Canine Kidney II wild type (MDCKII-WT) cells were seeded at 43,000 cells/cm^2 on six-well polyester membrane inserts (Transwell®) with a pore size of 0.4 μm. Cells were maintained in Dulbecco's modified Eagle's medium supplemented with 10% fetal bovine serum and 1% penicillin and streptomycin at 37° C. in a humidified incubator with 5% CO2. Media were changed every other day, and cell monolayers were cultured for 4 days before use.
# [13] = tested on: MDCKII-WT cells
# Procedure: as §1
# Viability of MDCKII-WT cells was measured by incubating the cells in suspension for 30, 60, and 120 min in various GF/buffer compositions at 37° C. Trypan blue dye was then added into the cell suspension, and incubated for 10 min. A sample was drawn from the suspension and spread on a hemocytometer, and counts of live (transparent) and dead (blue) cells were made.
# [14] = tested on: MDCKII-WT cell monolayer
# [15] = tested on: MDCKII-WT cell monolayer; settings: GF 0 to 50 vol % in upstream vehicle
# [16] = human, blood, other: intranasal, 5 mg
# [17] = buccal, 5 mg commercial parenteral MDZ, 8 healthy volunteers
compound,measurement,setting,value
"CN1C(=O)CN=C(c2ccccc2)c2cc(Cl)ccc21 [DZP, diazepam]",time to maximum concentration,"[1]; nasal, 5 mg",28 min
same,peak concentration,"[1]; rectally, published data adjusted from 15 mg to 5 mg assuming linear pharmacokinetics",128 ng/mL
same,time to maximum concentration,[2],45 min
same,steady state flux as a function of degree of saturation S,[3],increased linearly with increasing degree of saturation
same,Nasal Discomfort,[4],1.5
same,Nasal Discomfort (maximum),[4],6.8
same,steady state flux as a function of degree of saturation S,"[5]; S=0.5-6.25, 50:50 GF/water, silicone membrane",increased nearly linearly with increasing degree of saturation
same,Steady State Flux,"[5]; S=1, 30% GF",0.823 ± 0.030 μg/(cm^2 · min)
same,Time Lag,"[5]; S=1, 30% GF",1.876 ± 0.165 min
same,Transference,"[5]; S=1, 30% GF",0.823 ± 0.030 μg/(cm^2 · min)
same,Steady State Flux,"[5]; S=1, 40% GF",0.826 ± 0.019 μg/(cm^2 · min)
same,Time Lag,"[5]; S=1, 40% GF",1.793 ± 0.020 min
same,Transference,"[5]; S=1, 40% GF",0.826 ± 0.019 μg/(cm^2 · min)
same,Steady State Flux,"[5]; S=1, 50% GF",0.824 ± 0.011 μg/(cm^2 · min)
same,Time Lag,"[5]; S=1, 50% GF",1.842 ± 0.119 min
same,Transference,"[5]; S=1, 50% GF",0.824 ± 0.011 μg/(cm^2 · min)
same,Steady State Flux,"[5]; S=3, 30% GF",2.309 ± 0.070 μg/(cm^2 · min)
same,Time Lag,"[5]; S=3, 30% GF",1.806 ± 0.135 min
same,Transference,"[5]; S=3, 30% GF",0.770 ± 0.023 μg/(cm^2 · min)
same,Steady State Flux,"[5]; S=3, 40% GF",2.310 ± 0.055 μg/(cm^2 · min)
same,Time Lag,"[5]; S=3, 40% GF",1.787 ± 0.091 min
same,Transference,"[5]; S=3, 40% GF",0.770 ± 0.018 μg/(cm^2 · min)
same,Steady State Flux,"[5]; S=3, 50% GF",2.321 ± 0.095 μg/(cm^2 · min)
same,Time Lag,"[5]; S=3, 50% GF",1.755 ± 0.134 min
same,Transference,"[5]; S=3, 50% GF",0.774 ± 0.032 μg/(cm^2 · min)
same,time to peak concentrations,"[6]; rectal, adults",15 to 45 min
same,time to peak concentrations,"[6]; rectal, children",5 to 10 min
"O=C1Nc2ccc(Cl)cc2C(c2ccccc2Cl)=NC1O (stereo not shown) [LZP, lorazepam]",Elimination T½,[7],480 to 1500 min
same,First-pass Effect,[7],Low
same,lipid-solubility relative to DZP and MDZ,[8],⅕
same,time of peak plasma concentrations,[6]; rectal,75 min
same,effective in patients,[9],60-80%
"Cc1ncc2n1-c1ccc(Cl)cc1C(c1ccccc1F)=NC2 [MDZ, midazolam]",Lipid-solubility (Octanol/Water Ratio),[10]; at pH = 3,at pH = 3: 34
same,Lipid-solubility (Octanol/Water Ratio),[10]; at pH = 7.5,at pH = 7.5: 475
same,nasal discomfort (in words),"[4]; IN commercial formulations: DZP solvents 40% propylene glycol and 10% ethanol, MDZ pH=3",significant discomfort
same,Tmax,[4]; [16],20 min
same,bioavailability,[4]; [16],67.5%
same,Nasal Discomfort,[4],1.0
same,Nasal Discomfort (maximum),[4],6.0
same,Elimination T½,[7],30 to 240 min
same,First-pass Effect,[7],High
same,time to pharmacological effect comparable to IV diazepam,[6]; IM injection,≤ 15 minutes
same,time to peak serum concentrations,[6]; IM,20 to 30 min
same,average bioavailability,[6]; [17],75%
same,time to peak serum concentrations,[6]; [17],15 to 90 min
same,bioavailability,[6]; rectal,15-30 % of a dose
same,Cmax,[11],64.6 ng/mL
same,bioavailability,[11],97.9%
tetrahydrofurfuryl alcohol polyethyleneglycol ether [GF],TEER values,[12],> 100 Ω·cm2
same,viable cells,"[13]; 30 min treatment, GF up to 50 vol %",more than 90%
same,cell viability,"[13]; 1 h exposure, GF compositions above 30%",marked decease in cell viability
same,lethality,"[13]; 2 h exposure, GF compositions equal to or more than 20%",100%
same,effect of GF content on permeability of mannitol,"[14]; GF/AB cosolvent mixtures, 0 to 50 vol % GF",permeability of mannitol increases
same,percentage mass transported of mannitol,"[14]; all GF/AB cosolvent systems (0-50 vol % GF), t=30 min",below 5%
same,effect of GF content on transference of DZP through MDCK cell monolayer,[15],transference increased with increasing GF content

# Reference: US20070208011A1, “Supersaturated Benzodiazepine Solutions and Their Delivery” (priority 2005, published 2007)
